From patent publication US20180360799A1, “Nitrofuran Derivatives That Induce Apoptosis in Breast Cancer Cells by Activating Protein Expression” (Oklahoma Medical Research Foundation, priority 2015, published 2018)

Legend:
[1] = system: HCC-1806 cells; experiment: Cell viability, CellTiter-Glo, HCC-1806; assay type: cell-based; conditions: Homo sapiens, HCC1806, 72 h; Table 2; cancer cell viability, 3 d treatment; read-out: HCC-1806 IC50
Description: Given the known functions of CHOP in ER stress-induced apoptosis^16, 17 and in regulating cancer cell death,^6, 19, 20 the inventor investigated whether compound 1 affects the viability of TNBC cells. Three human TNBC cell lines, HCC-1806, HCC-1143, and HCC-38, were treated with doses of 1 ranging from 0.125 μM to 20 μM and their viability was assessed using the CellTiter-Glo assay, which measures intracellular ATP levels.
HCC-1806, HCC-1143, or HCC-38 cells were seeded at 3×10^3 cells/well in a 384-well plate and treated with compounds at the indicated concentrations. After 3 d treatment, the medium was aspirated and 20 μL/well of CellTiter-Glo reagent was added. Cell viability was measured with an EnVision multilabel plate reader. The IC50 value for cell viability of each compound was calculated with GraphPad Prism (La Jolla, Calif., US).

[2] = system: caspase-3; experiment: Caspase-3 cleavage by Western blotting in HCC-1806 cells; assay type: cell-based, human; conditions: HCC-1806, 10 μM, at 8 h and 24 h
Description: FIG. 2A is an image showing apoptosis of HCC-1806 cells after treatment with a 5-nitrofuran-2-amide derivative compound 3d (above). Cells were treated with 3d (10 μM) for the indicated times, and cleavage of caspase-3 was determined by Western blotting. α-Tubulin was used as a loading control. The data shown are representative of 3 independent studies. FIGS. 2B and 2C are live-cell phase-contrast images (magnification 10×) showing treatment with DMSO and (10 μM) 5-nitrofuran-2-amide derivative compound 3d respectively for 24 h. To determine whether the reduction in TNBC cell viability by the 5-nitrofuran-2-amide derivatives was due to the induction of apoptosis, the inventor analyzed cleavage of caspase-3, a critical executioner of apoptosis, in HCC-1806 cells treated with compound 3d. […] To confirm this, HCC-1806 cells were cultured to near confluence and treated with 10 μM 3d or DMSO for 24 h and then imaged by live-cell phase-contrast microscopy.
HCC-1806 cells were seeded in 60-mm dishes at 8×10^5 cells/dish and treated for the indicated times. Cells were then washed with PBS and lysed with lysis buffer (Cell Signaling Technology, Danvers, Mass., US) containing EDTA and phosphatase inhibitors. Aliquots of 20 μg total protein were separated on 7% SDS-PAGE gels (Life Technologies, Carlsbad, Calif., US) and transferred to PVDF membranes. […]

[3] = system: CHOP protein; experiment: CHOP protein by Western blotting in HCC-1806 cells; assay type: cell-based, human; conditions: 10 μM, significant increases between 4 h and 24 h
Description: FIG. 3B is an image showing CHOP […] expression levels after treatment with a 5-nitrofuran-2-amide derivative. Cells were treated with compound 3d (10 μM) for the indicated times, and CHOP protein levels were analyzed by Western blotting. α-Tubulin was used as a loading control. The data shown are representative of 3 independent studies.
HCC-1806 cells were seeded in 60-mm dishes at 8×10^5 cells/dish and treated for the indicated times. Cells were then washed with PBS and lysed with lysis buffer (Cell Signaling Technology, Danvers, Mass., US) containing EDTA and phosphatase inhibitors. Aliquots of 20 μg total protein were separated on 7% SDS-PAGE gels (Life Technologies, Carlsbad, Calif., US) and transferred to PVDF membranes. The membranes were probed with primary antibodies followed by the appropriate HRP-conjugated secondary antibodies (goat anti-rabbit IgG and goat anti-mouse IgG, 1:3000; Santa Cruz Biotechnology, Santa Cruz, Calif., US). Blots were then developed. The primary antibodies and dilutions used were: CHOP (1:1000 no. MA1-250; Thermo, IL, US), cleaved caspase 3 (1:1000 no. 9661; Cell Signaling Technology), ATF4 (1:1000 no. 10835-1-AP; ProteinTech Group, IL, US), p-eIF2α (Ser51) (1:1000 no. 9721; Cell Signaling Technology), and α-tubulin (1:2000 no. SC-8035; Santa Cruz Biotechnology).

[4] = system: ATF4 mRNA; experiment: ATF4 mRNA by qRT-PCR; assay type: cell-based, human; conditions: 10 μM, indicated times
Excerpt: Results are the means of 4 replicate wells and are representative of 3 independent studies. *P<0.05 by Student's t-test compared with DMSO-treated cells. Prolonged or severe ER stress activates CHOP expression primarily through the PERK branch of the unfolded protein response, although the IRE1α and ATF6 branches also contribute.^5, 18 The 5-nitrofuran-2-amide derivatives could induce CHOP expression by acting as an ER stressor that activates all three branches of unfolded protein response or by preferentially activating a select branch of unfolded protein response. To distinguish between these possibilities, the inventor investigated which branches of the unfolded protein response were affected by compound 3d. […] Total RNA was extracted using TRIzol reagent (Invitrogen, Carlsbad, Calif.) according to the manufacturer's protocol, and 2 μg of total RNA was reverse transcribed using a Superscript kit (Invitrogen). Real-time PCR was performed in 96-well format using SYBR Select Master Mix (Applied Biosystems, Foster City, Calif.) with an ABI 7500 PCR system (Applied Biosystems). The primer sequences used were: Human CHOP: SEQ ID NO: 1 [NT] and SEQ ID NO: 2 [NT]. Human ATF4: SEQ ID NO: 3 [NT] and SEQ ID NO: 4 [NT]. Human XBP1: SEQ ID NO: 5 [NT] and SEQ ID NO: 6 [NT]. Human Cyclophilin A: SEQ ID NO: 7 [NT] and SEQ ID NO: 8 [NT]. Human GAPDH: SEQ ID NO: 9 [NT] and SEQ ID NO: 10 [NT].

For CC1CCN(c2ccc(NC(=O)c3ccc([N+](=O)[O-])o3)cc2)CC1 [Compound 3d], the IC50 [1] was 2.8 µM, the “cleavage of caspase-3” value [2] was “increased cleavage of caspase-3 protein levels” and the CHOP protein levels [3] was “increased CHOP protein levels”. For the same compound, the “ATF4 expression, mRNA” value [4] was “significantly increased ATF4 expression”.
